{"source": "patent US8710088B2", "about": "“Pharmaceutical and diagnostic compositions for use in the treatment and diagnosis of neurodegenerative diseases or amyloid diseases” (Max-Delbruck-Centrum fur Molekulare Medizin, priority 2004, dated 2014)", "key": {"[1]": {"test_system": "neuronally differentiated PC12 cells", "assay": "toxicity of extracellular Aβ1-42 in neuronally differentiated PC12 cells, MTT test", "assay_type": "cell-based", "conditions": "48 h", "protocol": "(§1) Analogously, the compounds were also examined in aggregation assays with the amyloid β-peptide Aβ1-42(E22Q), which is a particularly rapidly aggregating variant of amyloid β, as well as with non-mutated (wild type) Aβ1-42. For this purpose, the peptide was incubated at a concentration of 15 μM in a phosphate buffer with a physiological pH value of 7.4 for 42 h at 37° C. and subsequently, aliquots were examined by means of the membrane filter method (Figure) or electron microscopy (Figures) as well. […] Cell viability measurements were carried out in neuronally differentiated PC12 cells to which beta-amyloid and the substances to be tested were added extracellularly in order to examine whether the compounds are able to reduce toxicity caused by amyloid-beta. After 48 h the viability of the cells (approximately corresponds to the number of vital cells) was measured."}, "wild type Aβ1-42": {"biological_target": "T1, wild type Aβ1-42 (Homo sapiens, UniProt P05067)", "T1 construct": "non-mutated (wild type) Aβ1-42", "T1 sequence (P05067 672-713 limits assumed)": "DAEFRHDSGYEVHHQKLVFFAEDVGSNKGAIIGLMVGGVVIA", "assay": "aggregation assay with wild type Aβ1-42, membrane filter method", "assay_type": "biochemical", "conditions": "peptide 15 μM, pH 7.4, 42 h, 37° C.", "protocol": "as §1"}, "huntingtin": {"biological_target": "T2, huntingtin (Homo sapiens, UniProt P42858, INS38QQQQQQQQQQQQQQQQQQQQQQQQQQQQQQ)", "T2 construct": "expressed in transfected cells; host or cells: COS1 cells, transient transfection", "T2 sequence (P42858 with tags, fused parts or gaps with the stated changes limits assumed)": "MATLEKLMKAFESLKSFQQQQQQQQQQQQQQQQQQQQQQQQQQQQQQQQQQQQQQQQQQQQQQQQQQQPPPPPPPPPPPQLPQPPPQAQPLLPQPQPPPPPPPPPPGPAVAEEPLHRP", "assay": "cell culture model of Huntington's chorea: COS1 cells transfected with pTL1-CAG51, membrane filter test", "assay_type": "cell-based", "conditions": "40-44 h, membrane filter method", "protocol": "(§2) The compounds were then tested in several cell culture models of polyglutamine diseases, inter alia Huntington's chorea. For this purpose, COS1 cells were transiently transfected with the plasmid pTL1-CAG51 already described above (Sittler, A., Walter, S., Wedemeyer, N., Hasenbank, R., Scherzinger, E., Eickhoff, H., Bates, G. P., Lehrach, H. and Wanker, E. E. (1998) Mol Cell 2, 427-36) and cultivated for 44 h in the presence of solvents or the chemical agents. Subsequently, the amount of aggregate was determined with the help of the membrane filter test as described by Heiser et al. (2002). […] The latter could be deduced from the total amount of protein in the cell lysate (FIG. 2B) which was determined with the help of cell extracts.\n7-Amino-8-(2,4-dihydroxy-6-methyl-phenyl)-1,9-dimethyl-phenoxazine-3-one was then tested in a cell culture model of Huntington's chorea. For this purpose, COS1 cells were transiently transfected with the plasmid pTL1-CAG51 already described above (Sittler, A., Walter, S., Wedemeyer, N., Hasenbank, R., Scherzinger, E., Eickhoff, H., Bates, G. P., Lehrach, H. and Wanker, E. E. (1998) Mol Cell 2, 427-36) and cultivated for 40-44 h in the presence of solvents or 7-amino-8-(2,4-dihydroxy-6-methyl-phenyl)-1,9-dimethyl-phenoxazine-3-one. Subsequently, the amount of aggregate was determined with the help of the membrane filter test as described by Heiser et al. (2002). […] The latter could be deduced from the total amount of protein (FIG. 2B) which was determined with the help of cell extracts."}, "amyloid-beta fibrils": {"biological_target": "amyloid-beta fibrils (Homo sapiens, UniProt P05067)", "sequence (P05067 672-713 limits assumed)": "as the sequence (P05067 672-713 limits assumed) above", "assay": "binding to amyloid-beta aggregates located on a cellulose acetate membrane", "conditions": "colored substances", "excerpt": "FIG. 16: Binding to amyloid-beta aggregates located on a cellulose acetate membrane"}, "[2]": {"biological_target": "T3, mutant huntingtin (GST fusion protein GST-HDQ51) (Homo sapiens, UniProt P42858, INS38QQQQQQQQQQQQQQQQQQQQQQQQQQQQQQ)", "T3 construct": "GST (N)", "T3 sequence (P42858 with tags, fused parts or gaps with the stated changes limits assumed)": "as the sequence (P42858 with tags, fused parts or gaps with the stated changes limits assumed) above", "assay": "in vitro amyloid fibril formation of huntingtin, electron microscopy", "assay_type": "biochemical", "protocol": "(§3) As in the tests described by Heiser et al. (2002), the protein was used for aggregation tests to which either only solvent or solvent and the chemical agent in question was added. Aliquots of these batches were examined by means of the membrane filter test and electron microscopy.\n(§4) As in the tests described by Heiser et al. (2002), the protein was used for aggregation tests to which either only solvent or solvent and 7-amino-8-(2,4-dihydroxy-6-methyl-phenyl)-1,9-dimethyl-phenoxazine-3-one was added. Aliquots of these batches were examined by means of the membrane filter test (FIG. 1B) and electron microscopy (FIGS. 1E and 1F)."}, "alpha-synuclein": {"test_system": "alpha-synuclein", "assay": "alpha-synuclein amyloid fibril formation, electron microscopy", "assay_type": "biochemical", "conditions": "wild type protein or mutant (A53T)", "excerpt": "For this purpose, the wild type protein or a mutant (A53T) was used."}, "[3]": {"biological_target": "T3, mutant huntingtin (GST fusion protein GST-HDQ51)", "assay": "in vitro aggregation of mutant huntingtin, membrane filter test", "assay_type": "biochemical", "conditions": "membrane filter method", "protocol": "as §3, §4"}, "caspases-3/-7": {"test_system": "caspases-3/-7", "assay": "caspase activity in the COS1 model of Huntington's chorea, fluorogenic substrate", "assay_type": "cell-based", "conditions": "fluorometric", "protocol": "(§5) In addition, it was examined in this cell culture model of Huntington's chorea whether the substances tested substances can cause cell damage by initiating apoptotic processes. For this purpose, the activity of two caspases (caspases-3/-7) was determined fluorometrically after addition of a fluorogenic substrate.\nas §5, with “7-amino-8-(2,4-dihydroxy-6-methyl-phenyl)-1,9-dimethyl-phenoxazine-3-one” for “the substances tested substances”, “(caspases 3 and 7)” for “(caspases-3/-7)”"}, "COS1 cells": {"test_system": "COS1 cells", "assay": "total amount of protein in the cell lysate (toxicity) in the COS1 model", "assay_type": "cell-based", "protocol": "as §2\n7-Amino-8-(2,4-dihydroxy-6-methyl-phenyl)-1,9-dimethyl-phenoxazine-3-one was then tested in a cell culture model of Huntington's chorea. […] Subsequently, the amount of aggregate was determined with the help of the membrane filter test as described by Heiser et al. (2002). […] The latter could be deduced from the total amount of protein (FIG. 2B) which was determined with the help of cell extracts."}, "[4]": {"biological_target": "T4, amyloid β-peptide Aβ1-42[E22Q] (Homo sapiens, UniProt P05067, E693Q)", "T4 construct": "the amyloid β-peptide Aβ1-42[E22Q]", "T4 sequence (P05067 672-713 E693Q)": "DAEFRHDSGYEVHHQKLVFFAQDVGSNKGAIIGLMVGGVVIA", "assay": "aggregation assay with Aβ1-42[E22Q], membrane filter method or electron microscopy", "assay_type": "biochemical", "conditions": "15 μM peptide, pH 7.4, 42 h, 37° C.", "protocol": "as §1\nAnalogously, the compound was also examined in aggregation assays with the amyloid β-peptide Aβ1-42[E22Q] which is a particularly rapidly aggregating variant of amyloid β. For this purpose, the peptide was incubated at a concentration of 15 μM in a phosphate buffer with a physiological pH value of 7.4 for 42 h at 37° C. and subsequently, aliquots were examined by means of the membrane filter method (FIG. 1A) or electron microscopy (FIGS. 1C and 1D) as well."}, "[5]": {"test_system": "ataxin-3 deletion construct (aa 221-360) with 71 glutamines", "assay": "ataxin-3 aggregation in COS-1 cells, filtration method", "assay_type": "cell-based", "conditions": "40 h, membrane filter method", "protocol": "For some compounds, a positive effect could be observed in another cell culture model of Huntington's chorea and a cell culture model of spinocerebellar ataxia (type 3). A test system based on the aggregation of an N-terminal ataxin-3 deletion construct (aa 221-360) with 71 glutamines in COS-1 cells was developed to isolate substances inhibiting the ataxin-3 aggregation. The cells were transiently transfected with the ataxin-3 expression construct and incubated in plates with 96 perforations with the added substance at 37° C. in an incubator. After 40 h the cells were harvested and lysated. The lysates were denatured in the presence of 2% SDS and analyzed using the filtration method."}, "neuroblastoma cells": {"test_system": "neuroblastoma cells", "conditions": "neuroblastoma cells damaged with amyloid β-peptide; cited from earlier work"}}, "data": [{"compound": "Nc1cccc(C2=Nc3cccc4cccc(c34)N2)c1", "note": "[3-(1H-perimidine-2-yl)-phenylamine]", "values": [{"measurement": "Inhibition of toxicity of extracellular wild type Aβ1-42", "setting": "[1]", "result": "Inhibition of toxicity"}, {"measurement": "Inhibition of the aggregation of wild type Aβ1-42 (SDS-insoluble aggregates)", "setting": "wild type Aβ1-42", "result": "Inhibition of the aggregation"}]}, {"compound": "alpha-amino-orcein", "values": [{"measurement": "Inhibition of the aggregation of huntingtin in mammalian cells", "setting": "huntingtin", "result": "Inhibition of the aggregation"}, {"measurement": "Inhibition of toxicity of extracellular wild type Aβ1-42", "setting": "[1]", "result": "Inhibition of the toxicity"}, {"measurement": "direct binding to amyloid-beta fibrils", "setting": "amyloid-beta fibrils", "result": "bind directly to amyloid-beta fibrils"}, {"measurement": "Inhibition of the aggregation of wild type Aβ1-42 (SDS-insoluble aggregates)", "setting": "wild type Aβ1-42", "result": "Inhibition of the aggregation"}]}, {"compound": "c1cc2c3c(cccc3c1)NC(c1ccncc1)N2", "note": "[2-pyridine-4-yl-2,3-dihydro-1H-perimidine]", "values": [{"measurement": "Inhibition of the amyloid fibril formation of huntingtin (Exon-1)", "setting": "[2]", "result": "Inhibition of the amyloid fibril formation"}]}, {"compound": "Oc1cc(O)c2c(c1)O[C@H](c1cc(O)c(O)c(O)c1)[C@H](O)C2", "note": "[EGC, (−)-Epigallocatechin]", "values": [{"measurement": "Inhibition of the aggregation of alpha-synuclein (amyloid fibrils)", "setting": "alpha-synuclein", "result": "Inhibition of the aggregation"}, {"measurement": "Inhibition of the aggregation of huntingtin (Exon-1) (SDS-insoluble aggregates)", "setting": "[3]", "result": "Inhibition of the aggregation"}]}, {"compound": "Oc1cc(O)c2c(c1)O[C@@H](c1cc(O)c(O)c(O)c1)[C@H](O)C2", "note": "[GC, (−)-Gallocatechin]", "values": [{"measurement": "Inhibition of the aggregation of alpha-synuclein (amyloid fibrils)", "setting": "alpha-synuclein", "result": "Inhibition of the aggregation"}, {"measurement": "Inhibition of the aggregation of huntingtin (Exon-1) (SDS-insoluble aggregates)", "setting": "[3]", "result": "Inhibition of the aggregation"}]}, {"compound": "Cc1cc(=O)cc2oc3cc(N)c(-c4c(C)cc(O)cc4O)c(C)c3nc1-2", "note": "[7-amino-8-(2,4-dihydroxy-6-methyl-phenyl)-1,9-dimethyl-phenoxazine-3-one]", "values": [{"measurement": "Inhibition of the aggregation of huntingtin in mammalian cells", "setting": "huntingtin", "result": "aggregation inhibiting influence"}, {"measurement": "caspase activity (caspases 3 and 7)", "setting": "caspases-3/-7", "result": "caspase activity was reduced"}, {"measurement": "increase of total protein content", "setting": "COS1 cells; COS1 cells cultivated in presence of compound", "result": "~20", "unit": "%"}, {"measurement": "toxic effect, deduced from total amount of protein", "setting": "COS1 cells; COS1 cells, at the concentrations used", "result": "without having a toxic effect"}, {"measurement": "Inhibition of the aggregation of huntingtin (Exon-1) (SDS-insoluble aggregates)", "setting": "[3]", "result": "aggregation inhibiting effect"}, {"measurement": "Inhibition of the aggregation of amyloid β-peptide Aβ1-42[E22Q]", "setting": "[4]", "result": "effectively inhibits the aggregation"}, {"measurement": "Inhibition of the amyloid fibril formation of huntingtin (Exon-1)", "setting": "[2]", "result": "aggregation inhibiting effect"}]}, {"compound": "CC(=O)N1CCN(c2ccc(OC(=O)Cc3cccs3)cc2)CC1", "note": "[Thiophene-2-yl-acetic acid 4-(4-acetyl-piperazine-1-yl)-phenyl ester]", "values": [{"measurement": "Inhibition of the aggregation of huntingtin in mammalian cells", "setting": "huntingtin", "result": "Inhibition of the aggregation"}, {"measurement": "Inhibition of the aggregation of ataxin-3 in mammalian cells", "setting": "[5]", "result": "Inhibition of the aggregation"}]}, {"compound": "O=C(O[C@@H]1Cc2c(O)cc(O)cc2O[C@@H]1c1cc(O)c(O)c(O)c1)c1cc(O)c(O)c(O)c1", "note": "[EGCG, (−)-Epigallocatechin gallate]", "values": [{"measurement": "Inhibition of the aggregation of alpha-synuclein (amyloid fibrils)", "setting": "alpha-synuclein", "result": "Inhibition of the aggregation"}, {"measurement": "neuroprotective effect", "setting": "neuroblastoma cells", "result": "neuroprotective effect"}]}]}
